{"source": "patent US4351829A", "about": "“Use of polypeptides as analgesic drugs” (Farmitalia Carlo Erba Spa, priority 1980, dated 1982)", "key": {"[1]": {"conditions": "cancer patients; intravenous bolus 1 nanogram/kg", "from_the_text": "The average dosages for Cerulitide were from 0.5 nanograms/kg body weight (i.v.) to 300 nonograms/kg body weight (intramusculary), depending upon the treated pains, as set forth in the following examples."}}, "note": "Read-outs that look alike come from different tables or passages of the source. Square brackets hold non-standard residues; d marks the D form. Peptide text beside a SMILES is read from it. sY = N[C@@H](Cc1ccc(OS(=O)(=O)O)cc1)C(=O)O; pGlu = O=C1CC[C@@H](C(=O)O)N1"}
{"smiles": "CSCC[C@H](NC(=O)[C@H](Cc1c[nH]c2ccccc12)NC(=O)CNC(=O)[C@@H](NC(=O)[C@H](Cc1ccc(OS(=O)(=O)O)cc1)NC(=O)[C@H](CC(=O)O)NC(=O)[C@H](CCC(N)=O)NC(=O)[C@@H]1CCC(=O)N1)[C@@H](C)O)C(=O)N[C@@H](CC(=O)O)C(=O)N[C@@H](Cc1ccccc1)C(N)=O", "note": "[Ceruletide] ([pGlu]QD[sY]TGWMDF-NH2)", "values": [{"measurement": "Side-effects", "setting": "intramuscular 0.05 micrograms/kg, first injection", "result": "None"}, {"measurement": "Side-effects", "setting": "intramuscular 0.1 micrograms/kg", "result": "None and Burning sensation at the injection site and pain sensation at the injection site"}, {"measurement": "Side-effects", "setting": "second intramuscular injection 0.05 micrograms/kg", "result": "None"}, {"measurement": "Side-effects", "setting": "[1]", "result": "None"}]}
